{
  "source": "patent US10465167B2",
  "about": "“Adjuvant for rapid proliferation of human mesenchymal stem cells in vitro, method for rapid proliferation of human mesenchymal stem cells in vitro, method for growth factor harvested from rapid proliferation of human mesenchymal stem cells in vitro and use thereof” (BUDDHIST TZU CHI MEDICAL FOUNDATION, priority 2013, dated 2019)",
  "key": {"[1]": {"tested_on": "adipose tissue-derived stem cells", "assay": "Cell growth density analysis, normal vs high oxygen environment", "format": "cell-based, human", "details": "high oxygen environment (37.5%), seventh day; FIG. 4A", "text": "In this experiment, the culture conditions are divided into four groups, respectively: a culture group with a basic medium and FGF-2 in a normal oxygen environment, a culture group with a basic medium and FGF-2 in a high oxygen environment, a culture group with a basic medium and the adjuvant of the present invention in a normal oxygen environment, and a culture group with a basic medium and the adjuvant of the present invention in a high oxygen environment, wherein the high oxygen environment refers to a partial pressure of oxygen approximately equal to 37.5%, and parameters of the culture conditions (such as a basic medium, an incubator and a cell culture density) are the same as described in Section 1 of the aforementioned Experiment 1.\nThe cells are cleaned once by a phosphate buffer solution (PBS), and then reacted with a Trypsin-EDTA solution at 37 degrees Celsius for 5 minutes, and then the cell spatula is used to remove incompletely reacted cells carefully, and the same proportion of a medium containing a fetal bovine serum is used for neutralizing the enzyme activity of trypsin. The number of cells is measured by a cell counter (Vi-CELL AS, Beckman Coulter). […] Each set of experiment data is measured for three times, and the result is expressed in term of mean± standard deviation."}, "[2]": {"tested_on": "adipose tissue-derived stem cells", "assay": "Western Blot of p21 and CDK2 proteins, normal vs high oxygen", "format": "cell-based, human", "details": "high oxygen environment (37.5%); FIG. 4B", "text": "The culture conditions of the adipose tissue-derived stem cell are divided into four groups as described in the aforementioned section 5. The Western Blot Analysis is used for the analysis to observe the effect of the controlling and adjusting the cell cycle related proteins of the adipose tissue-derived stem cells cultured in different culture conditions on the protein expression of the cell cycle related proteins (such as p21 and CDK2). Similarly, the expression of the β-actin protein is used as a control for the standardization of quantifying each aforementioned protein expression into data."}},
  "data": [
    {"substance": "FGF-2: basic fibroblast growth factor, concentration of 10 ng/mL (R&D Systems), comparison culture additive", "values": [
      {"measurement": "total number of cells", "setting": "[1]", "result": "below 2.5×10^6"},
      {"measurement": "expression of the p21 protein", "setting": "[2]", "result": "significant increase of the expression of the p21 protein"}
    ]}
  ]
}
